In one data set the test system is NCI-H716 cells. Kind of data set: CellTiter-Glo cell proliferation inhibition, NCI-H716. It is filed as cell-based. Particulars: Homo sapiens, 72 h, read-out: NCI-H716 cell proliferation inhibition rate IC50. Put shortly: (§1)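 Cells plated, compound added next day as 9-point 3-fold series from 1000 nM to 0.15 nM, incubated 72 h. Viability by CellTiter-Glo luminescence; IC50 from four-parameter variable-slope fit of percent inhibition.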
A general note: Cellular ATP, detected with luciferase, serves as a proxy for viable cell number.

The target of the next data set is FGFR2 V564F (Homo sapiens (Human), UniProt P21802, V564F). Kind of data set: TR-FRET kinase inhibition assay, FGFR2 V564F. It is filed as biochemical. To be noted: ATP Km concentration (20 μM). Put shortly: (§2)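 Kinase-domain fragments in 50 mM HEPES pH 7.5 with 10 mM MgCl2, ATP at Km plus peptide substrate; 60 min reaction at room temperature, then EDTA/Eu-anti-phosphotyrosine (PT66) detection for 60 min (30 min for V564F). 11-point 3-fold dilutions from 1000 nM; IC50 from four-parameter fit of 665/620 nm ratio inhibition.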
In general terms: TR-FRET usually uses a lanthanide donor and a delayed reading to cut background.

Data set [1] is described as follows: Pharmacokinetic experiment in SD rats after oral administration. It is filed as in vivo. Particulars: 5 mg/kg, plasma; for AUC(0-t) / AUC(0-inf) / half-life / MRT / Cmax: male, Sprague-Dawley (SD), rat, po; for AUC(0-t): read-out: Area under the curve AUC0-t; for AUC(0-inf): read-out: Area under the curve AUC0-∞; for half-life: read-out: Half-life t1/2 (converted); for MRT: read-out: Mean residence time MRT; for Cmax: read-out: Plasma concentration Cmax; for Time to peak tmax: p.o.

The subject of data set [2] is BaF3 FGFR2-BICC1 V564F cells. Kind of data set: CellTiter-Glo cell proliferation inhibition, BaF3 FGFR2-BICC1 V564F. It is filed as cell-based. Particulars: Mus musculus, 72 h, read-out: BaF3 FGFR2-BICC1 V564F inhibitory activity IC50. Put shortly:
as §1

The next data set deals with FGFR1 (Homo sapiens (Human), UniProt P11362). Kind of data set: TR-FRET kinase inhibition assay, FGFR1. It is filed as biochemical. Particulars: ATP Km concentration (30 μM). Put shortly:
as §2

The next data set concerns the target FGFR2 (Homo sapiens (Human), UniProt P21802). Kind of data set: TR-FRET kinase inhibition assay, FGFR2. It is filed as biochemical. Particulars: ATP Km concentration (30 μM). Put shortly: as §2
For a further data set, the target named is FGFR3 (Homo sapiens (Human), UniProt P22607). Kind of data set: TR-FRET kinase inhibition assay, FGFR3. It is filed as biochemical. To be noted: ATP Km concentration (30 μM). As to the method: To measure the IC50 values of the compounds against FGFR1, FGFR2, FGFR3, FGFR4, and FGFR2 V564F at ATP Km concentrations by TR-FRET method.
TR-FRET (time-resolved fluorescence resonance energy transfer) method was used to detect the inhibitory activity of the compounds on FGFR1, FGFR2, FGFR3, FGFR4, and FGFR2 V564F kinase region fragments. The highest detection concentration of the compounds in 5 kinase experiments was 1000 nM, which was diluted in 3 folds, with a total of 11 concentrations (1000 nM to 0.017 nM). A kinase buffer (50 mM HEPES pH 7.5, 1 mM EGTA, 10 mM MgCl2, 2 mM DTT, and 0.01% Tween-20) was used to prepare 4× enzyme solution, 4× compound solutions diluted in gradient, and a 2×ATP/Peptide substrate solution. To a 384-well plate, 2.5 μL of enzyme solution and 2.5 μL of diluted […] compound solution were added, and 5 μL of 2×ATP/Peptide substrate solution was then added. After reacting at room temperature for 60 minutes for FGFR1, FGFR2, FGFR3, and FGFR2 V564F kinases, and 120 minutes for FGFR4 kinase, 10 μL of a 2× termination and detection mixed liquid prepared with 1×LANCE detection buffer with an EDTA concentration of 20 mM and a Europium-anti-phosphotyrosine (PT66) concentration of 2 nM was added to each well of the plate. After reacting at room temperature for 60 minutes for FGFR1, FGFR2, FGFR3, and FGFR4, and 30 minutes for FGFR2 V564F, the fluorescence signal value in each well of the plate was measured by a microplate reader.
1) Inhibition rate (%): Calculation was performed on the raw data (665 nm/620 nm reading ratio) according to the following formula to obtain the inhibition rate. Inhibition rate %=[(mean value in positive control well−value in sample well)/(mean value in positive control well−mean value in negative control well)]×100, wherein the positive control well was a reaction well without a compound […], and the negative control well was a reaction wells without an enzyme.
2) Curve fitting: Log(inhibitor) vs. response—Variable slope (four parameters) in GraphPad Prism 6 was used for fitting equation analysis of the compound concentration and the corresponding inhibition rate, and the curve was fitted to obtain the IC50 values of the compounds.

For orientation: MRT means a mean duration of stay, worked out from the concentration-time curve.

Sequence of FGFR1 (P11362 478-767): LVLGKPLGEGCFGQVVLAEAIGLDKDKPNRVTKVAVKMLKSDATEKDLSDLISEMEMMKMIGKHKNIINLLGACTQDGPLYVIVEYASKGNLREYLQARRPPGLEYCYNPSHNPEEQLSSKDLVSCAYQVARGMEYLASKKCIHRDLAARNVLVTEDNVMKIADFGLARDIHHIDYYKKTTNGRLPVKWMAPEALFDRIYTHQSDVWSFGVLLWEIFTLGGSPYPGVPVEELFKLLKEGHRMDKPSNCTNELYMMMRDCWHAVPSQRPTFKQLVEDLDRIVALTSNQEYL
Sequence of FGFR2 (P21802 481-770): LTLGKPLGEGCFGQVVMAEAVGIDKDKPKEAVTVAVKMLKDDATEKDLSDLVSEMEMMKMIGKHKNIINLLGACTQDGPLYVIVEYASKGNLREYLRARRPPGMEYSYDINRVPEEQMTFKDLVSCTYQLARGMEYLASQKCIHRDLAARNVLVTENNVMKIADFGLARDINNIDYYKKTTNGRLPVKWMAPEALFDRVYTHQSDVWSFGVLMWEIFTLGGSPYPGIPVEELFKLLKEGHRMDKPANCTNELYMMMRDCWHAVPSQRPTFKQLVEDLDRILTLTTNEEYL
Sequence of FGFR2 V564F (P21802 481-770 V564F): as the sequence (P21802 481-770) above, with V84F counted along it
Sequence of FGFR3 (P22607 472-761): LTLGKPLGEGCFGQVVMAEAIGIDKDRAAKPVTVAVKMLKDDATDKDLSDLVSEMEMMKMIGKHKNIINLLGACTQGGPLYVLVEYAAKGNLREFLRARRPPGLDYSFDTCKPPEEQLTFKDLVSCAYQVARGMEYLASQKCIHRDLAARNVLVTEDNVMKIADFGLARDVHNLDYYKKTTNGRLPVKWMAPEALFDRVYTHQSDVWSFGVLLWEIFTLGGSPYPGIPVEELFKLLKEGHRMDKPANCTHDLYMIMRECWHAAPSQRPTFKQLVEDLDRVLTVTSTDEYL

For the molecule `C=CC(=O)N1CC[C@H](n2nc(C#Cc3ccc4cn(C)nc4c3)c3c(N)ncc(C(C)=O)c32)C1` [Example 82, (S)-1-(3-(7-acetyl-4-amino-3-((2-methyl-2H-indazol-6-yl)alkynyl)-1H-pyrazolo[4,3-c]pyridin-1-yl)pyrrolidine-1-methyl)prop-2-en-1-one], the IC50 was determined as 0.21 nM with NCI-H716 cells; 0.3 nM on FGFR2 V564F; 0.5 nM in data set [2]; 1.4 nM on FGFR1; 0.3 nM against FGFR2; 0.5 nM at FGFR3. In addition, in data set [1], the AUC(0-t) stood at 2800 ng·h/mL. Besides, the AUC(0-inf) in data set [1] came to 2910 ng·h/mL. For the same molecule, the half-life in data set [1] was 1.4 h. Further, the MRT in data set [1] was 3.05 h. Further, the Cmax in data set [1] was 677 ng/mL. Further, the Time to peak tmax in data set [1] stood at 1 h.

For the molecule `C=CC(=O)N1CC[C@H](n2nc(C#Cc3ccc4ccnn4c3)c3c(N)ncc(C(=O)CC)c32)C1` [Example 72, (S)-1-(3-(4-amino-7-propionyl-3-(pyrazolo[1,5-a]pyridine-6-ethynylene)-1H-pyrazolo[4,3-c]pyridin-1-yl)pyrrolidine-1-methyl)prop-2-en-1-one], in the data set with NCI-H716 cells, the IC50 is 1.97 nM. The IC50 against FGFR2 V564F was found to be 2.1 nM. In data set [1], the AUC(0-t) is 1150 ng·h/mL, the AUC(0-inf) was 1150 ng·h/mL, the half-life is 0.6 h and the MRT came to 2.26 h. Moreover, in data set [1], the Cmax was found to be 298 ng/mL and the Time to peak tmax was found to be 0.5 h. The IC50 in data set [2] was 1.5 nM. In addition, the IC50 at FGFR1 was found to be 7.3 nM. In addition, the IC50 against FGFR2 was 1.4 nM. Besides, the IC50 at FGFR3 turned out to be 1.6 nM.

The values are drawn from US20250152564A1, “PROPYLENE KETONE-CONTAINING BIOINHIBITOR, PREPARATION METHOD THEREFOR, AND USE THEREOF” (SHANGHAI HANSOH BIOMEDICAL CO., LTD., priority 2022, published 2025).
